Laboratory results from patent US20080089860A1, “Therapeutic compositions and methods useful in treating cancer” (priority 2006, published 2008).

Assays:
WM9 cells = assay: WM9 melanoma cell growth, MTT assay; type: cell-based, human; settings: for effect on IFN-induced growth inhibition of WM9 cells: pentamidine 0.625-1.25 μg/ml, ketoconazole 40 μg/ml, sodium stibogluconate 12.5-50 μg/ml
Method: For cell proliferation assays, cells were grown in 10% FCS culture medium containing various amounts of IFNs and/or sodium stibogluconate in 96 well plates and cultured at 37° C. for 3 or 6 days as indicated. The numbers of viable cells in proliferation assays were determined by MTT assays as described in Phatak et al., J. Immunol. 167, 3391 (2001).
Dose response curves were generated for each drug alone, and also the combinations. Median effect plots were generated for IFNs alone, sodium stibogluconate alone, and the combination. The combination index (CI) was determined and plotted vs. fraction affected (FA). Data were analyzed in both modes, mutually exclusive and mutually nonexclusive. The interaction between two mutually nonexclusive drugs is described by the Equation CI=D1/Dx1+D2/Dx2+D1D2/Dx1Dx2, where Dx1 and Dx2 are the doses of drug 1 and drug 2 that are required to inhibit growth x %. […] When CI<1, drugs are synergistic, when CI=1, drugs are additive, and when CI>1, drugs are antagonistic.
Renca (Murphy, G. P., and W. J. Hrushesky. 1973. A murine renal cell carcinoma. J Natl Cancer Inst 50:1013), Jurkat (Gillis, S., and J. Watson. 1980. Biochemical and biological characterization of lymphocyte regulatory molecules. V. Identification of an interleukin 2-producing human leukemia T cell line. J Exp Med 152:1709) and WM9 (Forsberg, K., 1. Valyi-Nagy, C. H. Heldin, M. Herlyn, and B. Westermark. 1993. Platelet-derived growth factor (PDGF) in oncogenesis: development of a vascular connective tissue stroma in xenotransplanted human melanoma producing PDGF-BB. Proc Natl Acad Sci USA 90:393) cell lines were obtained from a colleague at the Cleveland Clinic Foundation (CCF) and cultured in RPMI 1640 medium supplemented with 10% fetal calf serum (FCS). […] SSG has been described previously (Yi, T., M. K. Pathak, D. J. Lindner, M. E. Ketterer, C. Farver, and E. C. Borden. 2002. Anticancer activity of sodium stibogluconate in synergy with IFNs. J Immunol 169:5978).

PRL-3 = target: T1, PRL-3 (Homo sapiens, UniProt O75365); assay: In vitro PTPase assay, recombinant PRL-3; type: biochemical; settings: for PRL-3 PTPase activity remaining: 0.1-100 μg/ml
T1 construct: made in house; host or cells: E. coli DH5a
T1 sequence (O75365 whole entry): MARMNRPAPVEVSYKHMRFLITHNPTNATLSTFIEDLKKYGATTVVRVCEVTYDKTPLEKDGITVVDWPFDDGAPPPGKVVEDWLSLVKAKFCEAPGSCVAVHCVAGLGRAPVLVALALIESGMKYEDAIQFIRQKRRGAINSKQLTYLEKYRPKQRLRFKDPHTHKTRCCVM
Text: Sodium stibogluconate, suramin, sodium orthovanadate and GST fusion protein of SHP-1 have been described previously (Pathak et al., J. Imumol. 167, 3391 (2001)). Meglumine antimonate was obtained from Aventis. cDNAs of human PRL-1, PRL-2 and PRL-3 coding region were derived by RT-PCR from H9 cells (Safai, et al., Lancet 1, 1438 (1984)) and inserted in frame into the pGEX vector. cDNA of PRL-1R86 was generated by recombinant DNA technique using PRL-1 cDNA as template following established procedures (Jiao, et al., Mol. Cell. Biol. 16, 6985 (1996)). GST fusion proteins of the PRL phosphatases were prepared from DH5a bacteria transformed with the pGEX fusion protein constructs as described previously (Yi, et al., Mol. Cell. Biol. 12, 836 (1992)). cDNAs encoding the PRLs tagged at the N-termini with the Flag epitope (Castrucci, et al., J. Virol. 66, 4647 (1992)) were generated via recombinant DNA technique, sequenced to confirm their identities and cloned into the pBabepuro vector (Yang, et al., Blood 91, 3746 (1998)). Anti-Flag monoclonal antibody (M2, Sigma) was purchased from a commercial source. A synthetic phosphotyrosine peptide (Arg-Arg-Leu-Ile-Glu-Asp-Ala-Gle-Tyr-Al- -a-Ala-Arg-Gly (SEQ ID NO: 3), wherein the tyrosine is phosphorylated; UBI) and DiFMUP (6,8-difluoro-4-methylumbelliferyl phosphate, Molecular Probes) were purchased as substrates for PTPase assays.
In vitro PTPase assays were used to determine the effects of compounds on recombinant PTPases, following established procedures using a synthetic phosphotyrosine peptide or DiFMUP as the substrate (Pathak et al., J. Imumol. 167, 3391 (2001)). Briefly, individual PTPases (0.1 µg/reaction) in 50 µL of PTPase buffer (50 mM Tris, pH 7.4) were incubated at 22° C. for 10 minutes or as indicated in the absence or presence of inhibitory compounds. Substrates (0.2 mM phosphotyrosine peptide) were then added and allowed to react at 22° C. for 18 hrs. PTPase activity of individual reactions was measured by adding 100 µL of malachite green solution (UBI) and then quantifying the amounts of free phosphate cleaved by the PTPase from the peptide substrate by spectrometry (OD660 nm). PTPase assays using DiFMUP as a substrate were conducted following a previously described procedure (Matter, et al., Biochem. Biophys. Res. Comm. 283, 1061 (2001)). Relative PTPase activities were calculated based on the formula: (PTPase activity in the presence of an inhibitory compound/PTPase activity in the absence of the compound)× 100%. To assess the reversibility of PTPase inhibition, GST fusion proteins of the PTPases bound on glutathione beads (Pharmacia) were pre-incubated with cold Tris buffer (50 mM Tris, pH 7.0) or Tris buffer containing the inhibitor at 4° C. for 30 minutes. The beads were then washed three times in cold Tris buffer or not washed prior to subjecting to in vitro PTPase assays.

| PRL-3 PTPase activity remaining (PRL-3) | SMILES | activity against WM9 cells (WM9 cells; 0.625-20 μg/ml, single agent or with IFN-alpha) | inhibition at 40 µg/mL (WM9 cells; Homo sapiens, WM9, 40 μg/ml, single agent) [%] | effect on IFN-induced growth inhibition of WM9 cells (WM9 cells) | growth inhibition of WM9 cells (WM9 cells; pentamidine 2.5-5 μg/ml, single agent, 6 days) | growth of WM9 melanoma cells (WM9 cells; SSG 6.25-200 μg/ml, 6 days) | WM9 cells in day 6 culture (WM9 cells; single agent, 50 μg/ml and 100 μg/ml) | inhibition of PRL-3 after washing (PRL-3) | inactivation of PRL-3 (PRL-3; 10 μg/ml, pre-incubation 30 or 60 minutes) |
| --- | --- | --- | --- | --- | --- | --- | --- | --- | --- |
| 25-40% | CC(=O)N1CCN(c2ccc(OCC3COC(Cn4ccnc4)(c4ccc(Cl)cc4Cl)O3)cc2)CC1 (stereo not drawn) [ketoconazole] | no apparent activity | 67 | minor augmenting effect |  |  |  |  |  |
| 20-30% | N=C(N)c1ccc(OCCCCCOc2ccc(C(=N)N)cc2)cc1 [pentamidine] |  |  | augmented IFN-alpha-induced growth inhibition | 86-97% |  |  |  |  |
|  | O.O.O.O.O.O.O.O.O.O=C([O-])[C@@H]1[O][Sb]2([O-])([O][Sb]34([OH])[O][C@H]([C@H](O)CO)[C@H]([O]3)[C@H](C(=O)[O-])[O]4)[O][C@H]([C@H](O)CO)[C@@H]1[O]2.[Na+].[Na+].[Na+] [sodium stibogluconate] |  |  | greatly enhanced |  | inhibited by SSG in a dose-dependent manner | killed all cells | not relieved by a washing process | nearly complete inactivation |
